From US8962596B2 (Array BioPharma Inc., priority 2010, dated 2015)

Assays:
Assay type in all cases: biochemical
Human Tyk2 kinase domain = biological target: T1, Human Tyk2 kinase domain (Homo sapiens, UniProt P29597); test: Tyk2 Inhibition Assay (Omnia kinase fluorescence peptide substrate assay); settings: averaged IC50 ranges; assay of Example A; 10 μM (Km app) or 1 mM ATP, 2 nM Tyk2
T1 construct: comprising amino acids 886 to 1187 with 10 additional histidine residues; 10xHis (histidine tag) (C, cleaved yes); made in house
T1 sequence (P29597 886-1187): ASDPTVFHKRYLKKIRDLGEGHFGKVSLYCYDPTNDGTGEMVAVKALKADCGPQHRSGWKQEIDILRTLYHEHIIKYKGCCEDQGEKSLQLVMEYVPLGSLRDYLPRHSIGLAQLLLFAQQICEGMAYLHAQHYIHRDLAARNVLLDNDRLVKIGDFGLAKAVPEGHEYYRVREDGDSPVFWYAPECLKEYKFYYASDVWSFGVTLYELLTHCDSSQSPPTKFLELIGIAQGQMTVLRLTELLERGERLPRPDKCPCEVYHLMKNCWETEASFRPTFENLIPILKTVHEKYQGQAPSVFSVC
How it was run: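 2 nM His-tag-cleaved kinase domain (aa 886–1187) with 8 μM Omnia Y12 peptide, 10 μM (Km app) or 1 mM ATP, pH 7.4 HEPES/10 mM MgCl2, 2% DMSO. Fluorescence (ex 360/em 485 nm) every 50 s for 45 min; IC50 from 4-parameter fit of POC, top dose 10 μM.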

JAK1 = biological target: T2, JAK1 (Homo sapiens, UniProt P23458); test: JAK1 Inhibition Assay (Omnia kinase fluorescence peptide substrate assay); settings: averaged IC50 ranges; assay of Example B; 40 μM (Km app) or 1 mM ATP, 15 nM JAK1
T2 construct: purchased Invitrogen Corporation, Carlsbad, Calif; PV4775
T2 sequence (P23458 whole entry): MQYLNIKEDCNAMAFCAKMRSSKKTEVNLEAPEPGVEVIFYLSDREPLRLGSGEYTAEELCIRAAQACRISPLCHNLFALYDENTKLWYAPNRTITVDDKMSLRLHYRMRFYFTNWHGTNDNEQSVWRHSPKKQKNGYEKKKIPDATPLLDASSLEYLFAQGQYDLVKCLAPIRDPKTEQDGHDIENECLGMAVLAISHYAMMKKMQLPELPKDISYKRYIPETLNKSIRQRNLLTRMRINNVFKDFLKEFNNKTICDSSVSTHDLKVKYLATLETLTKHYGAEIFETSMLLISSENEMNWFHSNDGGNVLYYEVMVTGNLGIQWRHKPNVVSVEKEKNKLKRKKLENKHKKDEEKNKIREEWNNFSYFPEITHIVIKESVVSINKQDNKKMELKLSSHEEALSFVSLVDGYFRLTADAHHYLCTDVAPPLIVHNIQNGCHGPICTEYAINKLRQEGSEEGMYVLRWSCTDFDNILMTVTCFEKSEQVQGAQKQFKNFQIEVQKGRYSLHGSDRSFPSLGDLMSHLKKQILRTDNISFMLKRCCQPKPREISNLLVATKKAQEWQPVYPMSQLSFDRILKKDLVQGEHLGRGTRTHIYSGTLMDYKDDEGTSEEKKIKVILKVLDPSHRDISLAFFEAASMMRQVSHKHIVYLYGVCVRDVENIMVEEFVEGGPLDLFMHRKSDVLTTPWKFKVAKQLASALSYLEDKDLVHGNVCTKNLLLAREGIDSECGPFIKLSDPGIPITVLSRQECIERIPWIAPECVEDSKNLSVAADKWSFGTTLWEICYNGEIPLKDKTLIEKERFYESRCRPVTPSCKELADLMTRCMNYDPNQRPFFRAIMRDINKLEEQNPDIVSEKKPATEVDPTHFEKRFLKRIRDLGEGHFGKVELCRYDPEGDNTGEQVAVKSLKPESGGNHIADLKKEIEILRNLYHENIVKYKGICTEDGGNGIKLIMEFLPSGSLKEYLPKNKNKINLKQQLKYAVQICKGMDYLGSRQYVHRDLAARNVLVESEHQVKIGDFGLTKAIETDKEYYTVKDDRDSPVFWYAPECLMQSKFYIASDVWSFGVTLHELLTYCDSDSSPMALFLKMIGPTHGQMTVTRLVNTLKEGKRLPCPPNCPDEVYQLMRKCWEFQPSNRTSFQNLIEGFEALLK

JAK2 = biological target: T3, JAK2 (Homo sapiens, UniProt O60674); test: JAK2 Inhibition Assay (Omnia kinase fluorescence peptide substrate assay); settings: averaged IC50 ranges; assay of Example C; 25 μM (Km app) or 1 mM ATP, 5 nM JAK2
T3 construct: purchased Invitrogen Corporation, Carlsbad, Calif; PV4288
T3 sequence (O60674 whole entry): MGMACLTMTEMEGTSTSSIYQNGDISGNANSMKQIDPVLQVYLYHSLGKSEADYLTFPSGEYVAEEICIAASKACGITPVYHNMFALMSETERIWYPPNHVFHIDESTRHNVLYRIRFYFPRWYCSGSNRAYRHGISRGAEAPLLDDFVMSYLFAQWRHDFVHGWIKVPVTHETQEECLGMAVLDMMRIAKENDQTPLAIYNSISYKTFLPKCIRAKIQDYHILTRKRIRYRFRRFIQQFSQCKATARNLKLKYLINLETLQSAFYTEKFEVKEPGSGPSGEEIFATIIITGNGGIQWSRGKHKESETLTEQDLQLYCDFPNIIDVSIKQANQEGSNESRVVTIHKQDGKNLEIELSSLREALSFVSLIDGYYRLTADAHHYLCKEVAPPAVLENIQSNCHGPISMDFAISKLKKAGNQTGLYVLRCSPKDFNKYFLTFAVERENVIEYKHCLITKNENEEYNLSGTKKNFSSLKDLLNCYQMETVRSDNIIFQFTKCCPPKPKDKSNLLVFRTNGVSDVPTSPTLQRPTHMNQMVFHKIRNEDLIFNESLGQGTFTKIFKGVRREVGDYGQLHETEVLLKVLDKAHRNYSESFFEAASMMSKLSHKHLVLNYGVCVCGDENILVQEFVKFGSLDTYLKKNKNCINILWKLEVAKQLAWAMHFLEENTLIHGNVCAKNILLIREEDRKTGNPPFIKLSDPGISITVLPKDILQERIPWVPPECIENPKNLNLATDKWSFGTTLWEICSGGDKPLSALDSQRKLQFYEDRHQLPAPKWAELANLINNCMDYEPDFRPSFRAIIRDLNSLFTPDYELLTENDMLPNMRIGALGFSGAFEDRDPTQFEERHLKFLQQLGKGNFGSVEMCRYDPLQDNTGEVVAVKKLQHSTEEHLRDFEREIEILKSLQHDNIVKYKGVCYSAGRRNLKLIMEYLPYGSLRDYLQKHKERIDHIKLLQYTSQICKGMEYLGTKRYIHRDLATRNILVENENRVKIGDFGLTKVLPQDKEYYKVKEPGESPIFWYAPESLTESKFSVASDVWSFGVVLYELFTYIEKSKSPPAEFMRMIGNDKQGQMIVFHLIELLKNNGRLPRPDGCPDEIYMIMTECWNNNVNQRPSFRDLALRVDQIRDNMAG
How it was run: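 5 nM JAK2 phosphorylated 10 μM Omnia Y7 peptide with ATP at 25 μM (Km app) or 1 mM, in 25 mM HEPES pH 7.4, 10 mM MgCl2, 0.01% Triton X-100, 1 mM DTT, 2% DMSO. Fluorescence (360/485 nm) was read every 50 s for 45 min. 10-point 3-fold series from 10 μM; POC versus uninhibited and background controls, 4-parameter logistic IC50.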

JAK3 = biological target: T4, JAK3 (Homo sapiens, UniProt P52333); test: JAK3 Inhibition Assay (Omnia kinase fluorescence peptide substrate assay); settings: averaged IC50 ranges; assay of Example D; 10 μM (Km app) or 1 mM ATP, 2.5 nM JAK3
T4 construct: purchased Invitrogen Corporation, Carlsbad, Calif; PV4080
T4 sequence (P52333 1-1124): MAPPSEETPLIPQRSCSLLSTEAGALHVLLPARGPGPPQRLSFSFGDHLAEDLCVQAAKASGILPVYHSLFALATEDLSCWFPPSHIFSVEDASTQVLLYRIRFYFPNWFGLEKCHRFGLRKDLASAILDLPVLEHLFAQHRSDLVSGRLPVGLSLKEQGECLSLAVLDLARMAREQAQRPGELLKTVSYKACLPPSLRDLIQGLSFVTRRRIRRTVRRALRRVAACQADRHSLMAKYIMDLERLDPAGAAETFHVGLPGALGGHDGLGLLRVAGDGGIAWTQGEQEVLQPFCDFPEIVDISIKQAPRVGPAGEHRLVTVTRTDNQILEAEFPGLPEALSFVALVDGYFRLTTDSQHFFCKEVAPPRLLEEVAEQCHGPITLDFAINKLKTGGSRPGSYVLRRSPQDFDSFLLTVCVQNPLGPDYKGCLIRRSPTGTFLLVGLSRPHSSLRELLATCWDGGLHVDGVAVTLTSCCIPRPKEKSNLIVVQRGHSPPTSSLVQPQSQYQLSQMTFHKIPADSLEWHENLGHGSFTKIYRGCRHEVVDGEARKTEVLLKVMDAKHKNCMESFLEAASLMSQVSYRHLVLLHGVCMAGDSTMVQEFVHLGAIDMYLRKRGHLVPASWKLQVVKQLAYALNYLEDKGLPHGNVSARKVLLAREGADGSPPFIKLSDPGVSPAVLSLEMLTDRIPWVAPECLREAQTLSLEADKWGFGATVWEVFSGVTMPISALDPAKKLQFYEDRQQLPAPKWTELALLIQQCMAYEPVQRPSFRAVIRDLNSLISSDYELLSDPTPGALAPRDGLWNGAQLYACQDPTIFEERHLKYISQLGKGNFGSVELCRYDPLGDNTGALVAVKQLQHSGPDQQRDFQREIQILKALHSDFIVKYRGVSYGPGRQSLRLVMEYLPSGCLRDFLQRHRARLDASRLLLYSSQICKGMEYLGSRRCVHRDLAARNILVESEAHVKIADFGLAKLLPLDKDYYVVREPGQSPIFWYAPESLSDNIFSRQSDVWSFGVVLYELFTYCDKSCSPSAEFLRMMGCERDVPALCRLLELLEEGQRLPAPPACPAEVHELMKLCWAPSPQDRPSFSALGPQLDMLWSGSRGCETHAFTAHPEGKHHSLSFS
How it was run: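 Kinase at 2.5 nM with 10 µM Omnia Y7 peptide and 10 µM (Km app) or 1 mM ATP in 25 mM HEPES pH 7.4, 10 mM MgCl2, 1 mM DTT, 0.01% Triton X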

Compound	IC50 (Human Tyk2 kinase domain) [nM]	IC50 (JAK1) [nM]	IC50 (JAK2) [nM]	IC50 (JAK3) [nM]
N#CCC(C1CCCC1)n1cc(-c2nc(-c3ccc(N4CCOCC4)cc3)cc3nccn23)cn1 (single isomer, unassigned) [Example 115, 3-cyclopentyl-3-(4-(7-(4-morpholinophenyl)imidazo[1,2-c]pyrimidin-5-yl)-1H-pyrazol-1-yl)propanenitrile]	< 10	< 10	< 10	100 to 1000
Cc1nn(C2(CC#N)CN(CC(F)(F)F)C2)cc1-c1nc(-c2cnn(C)c2)cc2nccn12 [Example 108, 2-(3-(3-methyl-4-(7-(1-methyl-1H-pyrazol-4-yl)imidazo[1,2-c]pyrimidin-5-yl)-1H-pyrazol-1-yl)-1-(2,2,2-trifluoroethyl)azetidin-3-yl)acetonitrile]	10 to 100	> 1000	100 to 1000	> 1000
Cn1cc(-c2cc3nccn3c(-c3cnn(C(CC#N)C4CCC4)c3)n2)cn1 (stereo not shown) [Example 20, 3-cyclobutyl-3-(4-(7-(1-methyl-1H-pyrazol-4-yl)imidazo[1,2-c]pyrimidin-5-yl)-1H-pyrazol-1-yl)propanenitrile]	< 10	10 to 100	10 to 100	> 1000
CN1CCN(CCn2cc(-c3cc4nccn4c(-c4cnn(C(CC#N)C5CC5)c4)n3)cn2)CC1 (stereo not shown) [Example 44, 3-cyclopropyl-3-(4-(7-(1-(2-(4-methylpiperazin-1-yl)ethyl)-1H-pyrazol-4-yl)imidazo[1,2-c]pyrimidin-5-yl)-1H-pyrazol-1-yl)propanenitrile]	10 to 100	100 to 1000	10 to 100	100 to 1000
N#CCC1(n2cc(-c3nc(-c4ccc(C(F)(F)F)cc4)cc4nccn34)cn2)CN(S(=O)(=O)C(F)(F)F)C1 [Example 146, 2-(3-(4-(7-(4-(trifluoromethyl)phenyl)imidazo[1,2-c]pyrimidin-5-yl)-1H-pyrazol-1-yl)-1-(trifluoromethylsulfonyl)azetidin-3-yl)acetonitrile]	< 10	10 to 100	100 to 1000	> 1000
Cn1cc(-c2cc3nccn3c(-c3cnn(C4(CC#N)CCN(CC(F)(F)F)CC4)c3)n2)cn1 [Example 31, 2-(4-(4-(7-(1-methyl-1H-pyrazol-4-yl)imidazo[1,2-c]pyrimidin-5-yl)-1H-pyrazol-1-yl)-1-(2,2,2-trifluoroethyl)piperidin-4-yl)acetonitrile]	10 to 100	100 to 1000	100 to 1000	> 1000
Cn1cc(-c2cc3nccn3c(-c3cnn(C4(CC#N)CC5(CCCC5)C4)c3)n2)cn1 [Example 161, 2-(2-(4-(7-(1-methyl-1H-pyrazol-4-yl)imidazo[1,2-c]pyrimidin-5-yl)-1H-pyrazol-1-yl)spiro[3.4]octan-2-yl)acetonitrile]	< 10	100 to 1000	10 to 100	> 1000
Cn1cc(-c2cc3ncc(C#N)n3c(-c3cnn(C(CC#N)C4CC4)c3)n2)cn1 (stereo not shown) [Example 26, 5-(1-(2-cyano-1-cyclopropylethyl)-1H-pyrazol-4-yl)-7-(1-methyl-1H-pyrazol-4-yl)imidazo[1,2-c]pyrimidine-3-carbonitrile]	100 to 1000	> 1000	100 to 1000	> 1000
N#CCC(C1CC1)n1cc(-c2nc(-c3ccc(N4CCOCC4)cc3)cc3nccn23)cn1 (stereo not shown) [Example 117, 3-cyclopropyl-3-(4-(7-(4-morpholinophenyl)imidazo[1,2-c]pyrimidin-5-yl)-1H-pyrazol-1-yl)propanenitrile]	< 10	10 to 100	10 to 100	100 to 1000
Cn1cc(-c2cc3nccn3c(-c3cnn(C4(CC#N)CN(CC#N)C4)c3)n2)cn1 [Example 73, 2,2′-(3-(4-(7-(1-methyl-1H-pyrazol-4-yl)imidazo[1,2-c]pyrimidin-5-yl)-1H-pyrazol-1-yl)azetidine-1,3-diyl)diacetonitrile]	< 10	100 to 1000	10 to 100	> 1000
Cn1cc(-c2cc3nccn3c(-c3cnn(C(C)(CC#N)c4ccccc4)c3)n2)cn1 (stereo not shown) [Example 16, 3-(4-(7-(1-methyl-1H-pyrazol-4-yl)imidazo[1,2-c]pyrimidin-5-yl)-1H-pyrazol-1-yl)-3-phenylbutanenitrile]	100 to 1000	> 1000	100 to 1000	> 1000
Cn1cc(-c2cc3nccn3c(-c3cnn(C4(CC#N)CC5(CCCCC5)C4)c3)n2)cn1 [Example 151, 2-(2-(4-(7-(1-methyl-1H-pyrazol-4-yl)imidazo[1,2-c]pyrimidin-5-yl)-1H-pyrazol-1-yl)spiro[3.5]nonan-2-yl)acetonitrile]	< 10	100 to 1000	10 to 100	100 to 1000
Cn1cc(-c2cc3nccn3c(-c3cnn(C(CC#N)C4CC4)c3)n2)cn1 (single isomer, unassigned; enantiomer 1) [Example 3, Enantiomer 1 of 3-cyclopropyl-3-(4-(7-(1-methyl-1H-pyrazol-4-yl)imidazo[1,2-c]pyrimidin-5-yl)-1H-pyrazol-1-yl)propanenitrile (Peak 1)]	10 to 100	100 to 1000	100 to 1000	100 to 1000
CCN1CC(CC#N)(n2cc(-c3nc(-c4cnn(C)c4)cc4nccn34)cn2)C1 [Example 72, 2-(1-ethyl-3-(4-(7-(1-methyl-1H-pyrazol-4-yl)imidazo[1,2-c]pyrimidin-5-yl)-1H-pyrazol-1-yl)azetidin-3-yl)acetonitrile]	10 to 100	> 1000	100 to 1000	> 1000
C#CCN1CC(CC#N)(n2cc(-c3nc(-c4cnn(C)c4)cc4nccn34)cn2)C1 [Example 76, 2-(3-(4-(7-(1-methyl-1H-pyrazol-4-yl)imidazo[1,2-c]pyrimidin-5-yl)-1H-pyrazol-1-yl)-1-(prop-2-ynyl)azetidin-3-yl)acetonitrile]	10 to 100	100 to 1000	100 to 1000	> 1000
N#CCC(C1CC1)n1cc(-c2nc(-c3ccc4c(c3)CCNC4)cc3nccn23)cn1 (stereo not shown) [Example 52, 3-Cyclopropyl-3-(4-(7-(1,2,3,4-tetrahydroisoquinolin-6-yl)imidazo[1,2-c]pyrimidin-5-yl)-1H-pyrazol-1-yl)propanenitrile]	10 to 100	10 to 100	10 to 100	100 to 1000
